Source: ChEMBL document CHEMBL6115029, “Discovery of Daraxonrasib (RMC-6236), a Potent and Orally Bioavailable RAS(ON) Multi-selective, Noncovalent Tri-complex Inhibitor for the Treatment of Patients with Multiple RAS-Addicted Cancers” (J Med Chem, 2025)
Converted amounts (≈) assume the structure as drawn.

Tests used:
[1] = biological target: Peptidyl-prolyl cis-trans isomerase A (Homo sapiens, UniProt P62937); assay: Binding affinity to Avi-tagged Cyclophilin A (unknown origin) assessed as dissociation constant by SPR analysis
Peptidyl-prolyl cis-trans isomerase A, sequence (P62937 whole entry, the tested form may be a part): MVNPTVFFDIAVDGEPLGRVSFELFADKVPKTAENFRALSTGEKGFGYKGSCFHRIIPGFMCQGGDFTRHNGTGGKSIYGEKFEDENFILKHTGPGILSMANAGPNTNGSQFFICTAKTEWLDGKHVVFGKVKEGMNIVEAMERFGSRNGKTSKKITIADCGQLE

[2] = Inhibition of 6His-tagged KRAS G12D mutant(1 to 169 residues)/GST-tagged GMPPNP-bound BRAF RBD (155 to 229 reisudes)/Cyclophilin A (unknown origin) tri-complex protein-protein interaction incubated for 3 hrs by TR-FERT based disruption assay; set-up: species or system Homo sapiens
[3] = Inhibition of 6His-tagged KRAS G12C mutant(1 to 169 residues)/GST-tagged GMPPNP-bound BRAF RBD (155 to 229 reisudes)/Cyclophilin A (unknown origin) tri-complex protein-protein interaction incubated for 3 hrs by TR-FERT based disruption assay; set-up: species or system Homo sapiens
[4] = Inhibition of 6His-tagged wildtype KRAS (1 to 169 residues)/GST-tagged GMPPNP-bound BRAF RBD (155 to 229 reisudes)/Cyclophilin A (unknown origin) tri-complex protein-protein interaction incubated for 3 hrs by TR-FERT based disruption assay; set-up: species or system Homo sapiens
[5] = system: CAPAN-1; assay: Cytotoxicity against human CAPAN-1 cells harboring KRAS G12V mutant cultured as 2D cells assessed as reduction in cell viability incubated for 120 hrs by CellTiter-Glo luminescence assay; type: functional, cell-based; settings: CAPAN-1, 120 h
[6] = system: ASPC1; assay: Cytotoxicity against human ASPC1 cells harboring KRAS G12D mutant cultured as 2D cells assessed as reduction in cell viability incubated for 120 hrs by CellTiter-Glo luminescence assay; type: functional, cell-based; settings: ASPC1, 120 h
[7] = system: NCI-H358; assay: Cytotoxicity against human NCI-H358 cells harboring KRAS G12C mutant cultured as 2D cells assessed as reduction in cell viability incubated for 120 hrs by CellTiter-Glo luminescence assay; type: functional, cell-based; settings: NCI-H358, 120 h
[8] = system: NCI-H1975; assay: Cytotoxicity against human NCI-H1975 cells harboring wildtype KRAS cultured as 2D cells assessed as reduction in cell viability incubated for 120 hrs by CellTiter-Glo luminescence assay; type: functional, cell-based; settings: NCI-H1975, 120 h
[9] = Inhibition of ERK1/2 phosphorylation in human CAPAN-1 cells harboring KRAS G12V mutant incubated for 4 hrs by AlphaLISA assay; type: cell-based; settings: CAPAN-1, 4 h
[10] = Inhibition of ERK1/2 phosphorylation in human NCI-H358 cells harboring KRAS G12C mutant incubated for 4 hrs by AlphaLISA assay; type: cell-based; settings: NCI-H358, 4 h
[11] = Inhibition of ERK1/2 phosphorylation in human ASPC1 cells harboring KRAS G12D mutant incubated for 4 hrs by AlphaLISA assay; type: cell-based; settings: ASPC1, 4 h
[12] = Metabolic stability in mouse liver microsomes assessed as half-life at 2 uM measured upto 60 mins in presence of NADPH by LC-MS/MS analysis; type: ADME, Microsome
[13] = system: A-375; assay: Cytotoxicity against human A-375 cells assessed as reduction in cell viability incubated for 120 hrs by CellTiter-Glo luminescence assay; type: functional, cell-based; settings: A-375, 120 h
[14] = Kinetic solubility of compound in PBS at pH 7.4 measured after 5 hrs by UV analysis; type: physicochemical; settings: read-out: Kinetic_solubility
[15] = Apparent permeability across apical to basolateral side in human Caco-2 cells at 5 uM incubated for 2 hrs by LC-MS/MS analysis; type: ADME, cell-based
[16] = Efflux ratio of apparent permeability in human Caco-2 cells at 5 uM incubated for 2 hrs by LC-MS/MS analysis; type: ADME, cell-based
[17] = Clearance in female BALB/c mouse at 1 mg/kg, iv measured after 24 hrs by LC-MS/MS analysis; type: ADME, organism-based; settings: in vivo
[18] = Half-life in female BALB/c mouse at 1 mg/kg, iv measured after 24 hrs by LC-MS/MS analysis; type: ADME, organism-based; settings: in vivo
[19] = Oral bioavailability in female BALB/c mouse at 10 mg/kg measured after 24 hrs by LC-MS/MS analysis; type: ADME, organism-based; settings: in vivo
[20] = Inhibition of 6His-tagged KRAS G12V mutant(1 to 169 residues)/GST-tagged GMPPNP-bound BRAF RBD (155 to 229 reisudes)/Cyclophilin A (unknown origin) tri-complex protein-protein interaction incubated for 3 hrs by TR-FERT based disruption assay; set-up: species or system Homo sapiens
[21] = Lipophilicity, logD of compound at pH 7.4 by Agilent 1290 II uPLC analysis; type: physicochemical; settings: buffer
[22] = Clearance in female BALB/c mouse blood at 1 mg/kg, iv measured after 24 hrs by LC-MS/MS analysis; type: ADME, organism-based
[23] = Oral bioavailability in female BALB/c mouse blood at 10 mg/kg measured after 24 hrs by LC-MS/MS analysis; type: ADME, organism-based

Row | SMILES | Kd [1] [nM] | IC50 [2] [nM] | IC50 [3] [nM] | IC50 [4] [nM] | EC50 [9] [nM] | EC50 [10] [nM] | EC50 [11] [nM] | half-life at 2 µM [12] [min] | solubility kinetic at 5 h [14] [µM] | Papp A→B at 2 h, 5 µM [15] [×10⁻⁶ cm/s] | efflux ratio at 2 h, 5 µM [16] | clearance [17] [mL/min/kg] | half-life [18] [min] | IC50 [20] [nM] | logD [21] | EC50 [5] [nM] | EC50 [7] [nM] | EC50 [8] [nM] | EC50 [13] [nM] | EC50 [6] [nM] | also measured
1 | CCn1c(-c2cccnc2[C@H](C)OC)c2c3cc(ccc31)-c1csc(n1)C[C@H](NC(=O)[C@H](C(C)C)N(C)C(=O)N(C)C)C(=O)N1CCC[C@H](N1)C(=O)OCC(C)(C)C2 | 468 | 548 | 58 | 108 | 3 | 11 | 42 | 5 | 49 (≈ 39.9 µg/mL) | 0.94 | 2.9 | 55 | 42 |  |  | 18 | 6 | 26 | 5820 |  | IC50 [6]: 75 nM; bioavailability [19]: 0.8%
2 | CCn1c(-c2cccnc2[C@H](C)OC)c2c3cc(ccc31)-c1csc(n1)C[C@H](NC(=O)[C@H]1[C@@H]3COC[C@@H]31)C(=O)N1CCC[C@H](N1)C(=O)OCC(C)(C)C2 | 2420 | 346 | 51 | 139 | 11 | 26 | 146 | 26 | 15 (≈ 11.1 µg/mL) | 2.3 | 7.5 | 6.67 | 126 | 84 |  | 69 | 30 |  | > 10000 | 92 | bioavailability [19]: 49%
3 | CCn1c(-c2cccnc2[C@H](C)OC)c2c3cc(ccc31)-c1csc(n1)C[C@H](NC(=O)[C@H]1CCO1)C(=O)N1CCC[C@H](N1)C(=O)OCC(C)(C)C2 | 6520 | 2310 | 224 | 628 | 124 | 952 | > 10000 | 44 | 5 (≈ 3.57 µg/mL) | 3.1 | 1.7 | 3.33 | 96 | 334 | 4.3 | 615 | 429 | 402 | > 10000 | 1640 | bioavailability [19]: 44%
4 | CCn1c(-c2cccnc2[C@H](C)OC)c2c3cc(ccc31)-c1csc(n1)C[C@H](NC(=O)C1CC1)C(=O)N1CCC[C@H](N1)C(=O)OCC(C)(C)C2 | 18700 | 1950 | 208 | 615 | 147 | 166 | 3410 | 94 | 15 (≈ 10.5 µg/mL) | 4.3 | 1.6 | 5 | 120 | 301 | 4.8 | 485 | 403 | 188 | 5950 | 852 | bioavailability [19]: 53%
5 | CCn1c(-c2cc(N3CCN(C)CC3)cnc2[C@H](C)OC)c2c3cc(ccc31)-c1csc(n1)C[C@H](NC(=O)[C@H]1CCO1)C(=O)N1CCC[C@H](N1)C(=O)OCC(C)(C)C2 |  | 435 | 50 | 138 | 2 | 10.6 | 50.1 | > 120 | 117 (≈ 95.1 µg/mL) | 0.4 | 62 |  |  | 77 | 4.3 | 14.2 | 22.3 | 7.9 | 6950 | 45.2 | 
6 | CCn1c(-c2cccnc2[C@H](C)OC)c2c3cc(ccc31)-c1csc(n1)C[C@H](NC(=O)[C@H](C(C)C)N(C)C(=O)N1CCC1)C(=O)N1CCC[C@H](N1)C(=O)OCC(C)(C)C2 | 293 | 491 | 35 | 107 | 2 | 1 | 22 | 9 | < 2 | 0.09 | 13.6 | 65 | 48 |  |  | 11 | 7 | 28 | 4400 |  | IC50 [6]: 37 nM; bioavailability [19]: 2.2%
7 | CCn1c(-c2cccnc2[C@H](C)OC)c2c3cc(ccc31)-c1csc(n1)C[C@H](NC(=O)[C@H](C(C)C)N(C)C(=O)OC)C(=O)N1CCC[C@H](N1)C(=O)OCC(C)(C)C2 | 184 | 3070 | 302 | 742 | 8 | 63 | 326 | 11 | < 2 | 0.08 | 7.4 |  |  |  |  | 28 | 35 |  | 5420 |  | IC50 [6]: 400 nM

Stronger by IC50 [2], values ahead:

Row | Kd [1] [nM] | IC50 [2] [nM] | IC50 [3] [nM] | IC50 [4] [nM] | EC50 [9] [nM] | EC50 [10] [nM] | EC50 [11] [nM] | half-life at 2 µM [12] [min] | solubility kinetic at 5 h [14] [µM] | Papp A→B at 2 h, 5 µM [15] [×10⁻⁶ cm/s] | efflux ratio at 2 h, 5 µM [16] | clearance [17] [mL/min/kg] | half-life [18] [min] | IC50 [20] [nM] | logD [21] | SMILES | EC50 [5] [nM] | EC50 [7] [nM] | EC50 [8] [nM] | EC50 [13] [nM] | EC50 [6] [nM] | also measured
8 | 60 | 151 | 29 | 69 | 0.3 | 1.7 | 2.4 | > 120 | 23 (≈ 19.3 µg/mL) | 0.3 | 43 |  |  | 40 | 4.1 | CCn1c(-c2cc(N3CCN(C)CC3)cnc2[C@H](C)OC)c2c3cc(ccc31)-c1csc(n1)C[C@H](NC(=O)[C@H]1[C@@H]3COC[C@@H]31)C(=O)N1CCC[C@H](N1)C(=O)OCC(C)(C)C2 | 1.1 | 0.4 | 0.4 | 9450 | 2.1 | 
9 | 23 | 272 | 53 | 116 | 0.5 | 2.1 | 4.4 | > 120 | 130 (≈ 107 µg/mL) | 0.2 | 96 |  |  | 71 | 3.9 | CCn1c(-c2cc(N3CC4CC(C3)N4C)cnc2[C@H](C)OC)c2c3cc(ccc31)-c1csc(n1)C[C@H](NC(=O)[C@H]1C[C@@H]1C)C(=O)N1CCC[C@H](N1)C(=O)OCC(C)(C)C2 | 2.1 | 1.7 |  | 2980 | 5.3 | clearance [22]: 16.7 mL/min/kg; bioavailability [23]: 5.7%
10 | 396 | 277 | 50 | 117 | 1.3 | 4.9 | 15.2 |  | 5 (≈ 4.19 µg/mL) | 2.2 |  |  |  | 64 | 5.3 | CCn1c(-c2cc(N3CCN(C4CC4)CC3)cnc2[C@H](C)OC)c2c3cc(ccc31)-c1csc(n1)C[C@H](NC(=O)[C@H]1C[C@@H]1C)C(=O)N1CCC[C@H](N1)C(=O)OCC(C)(C)C2 | 8.1 | 3.4 |  | > 10000 | 13.9 | 
